Reference: EP4782437A1, “HETEROARYL COMPOUND, AND PREPARATION METHOD THEREFOR AND USE THEREOF IN MEDICINE” (Jiangsu Hengrui Pharmaceuticals Co., Ltd., priority 2023, dated 2025)

How the values were obtained:
[1] = target: T1, BTK recombinant human protein (Homo sapiens, UniProt Q06187); assay: Inhibitory activity against BTK (HTRF KinEASE-TK kit); type: biochemical; conditions: 2 nM BTK, 10 µM ATP, 0.5 hours preincubation at 25°C; read-out: IC50 values of inhibitory activity against BTK
T1 construct: purchased Thermo PV3363
T1 sequence (Q06187 whole entry): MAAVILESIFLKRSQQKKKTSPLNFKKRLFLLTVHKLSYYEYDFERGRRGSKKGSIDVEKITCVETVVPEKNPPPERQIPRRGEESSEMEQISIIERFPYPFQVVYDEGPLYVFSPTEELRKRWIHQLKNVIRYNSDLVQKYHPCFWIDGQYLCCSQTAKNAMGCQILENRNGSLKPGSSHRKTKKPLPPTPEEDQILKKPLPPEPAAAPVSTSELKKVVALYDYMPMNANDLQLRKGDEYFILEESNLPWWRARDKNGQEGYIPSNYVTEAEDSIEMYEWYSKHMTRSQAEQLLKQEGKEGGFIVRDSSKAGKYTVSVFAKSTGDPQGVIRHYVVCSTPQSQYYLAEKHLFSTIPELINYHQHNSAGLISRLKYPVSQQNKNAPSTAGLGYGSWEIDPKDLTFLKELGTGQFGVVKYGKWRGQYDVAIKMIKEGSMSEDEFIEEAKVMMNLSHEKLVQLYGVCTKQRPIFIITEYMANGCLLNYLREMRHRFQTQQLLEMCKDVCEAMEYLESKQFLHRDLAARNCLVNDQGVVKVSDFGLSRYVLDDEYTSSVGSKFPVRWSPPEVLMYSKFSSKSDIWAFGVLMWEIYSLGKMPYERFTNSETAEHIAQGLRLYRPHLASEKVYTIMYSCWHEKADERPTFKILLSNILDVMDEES
Description: Test example 1: Inhibitory activity of compounds of the present disclosure against BTK • I. Experimental materials and instruments • 1. BTK recombinant human protein (Thermo, PV3363) • 2. HTRF KinEASE-TK kit (Cisbio, 62TK0PEC) • 3. 1 M MgCl2 (Thermo, AM9530G) • 4. 1 M MnCl2 (Sigma, M1787-100ML) • 5. Adenosine 5'-triphosphate (ATP) (New England Biolabs, P0756L) • 6. DTT 2M (Sangon Biotech, B645939) • 7. Ultrapure water (Invitrogen, 10977-015) • 8. OptiPlate-384, white opaque 384-well microplate (PerkinElmer, 6007290) • 9. 96-well round-bottom plate (Corning, 3788) • 10. Biochemical incubator (Shanghai Boxun Medical & Biological Instruments Co., Ltd., BSP-100) • 11. 15-mL centrifuge tube (Corning) • 12. Benchtop high-speed centrifuge (Changsha Yingtai Instrument Co., Ltd., TD4N) • 13. Multifunctional microplate reader (PerkinElmer, EnVision) • 14. Bravo liquid handling platform (Agilent Technologies, SGC120TH34702) • II. Experimental procedure
The HTRF KinEASE-TK kit is designed to detect changes in BTK enzyme activity based on two technologies, i.e., fluorescence resonance energy transfer and time-resolved fluorescence. The kit is operated in two stages: 1) enzyme reaction stage: the enzyme reaction is initiated by adding ATP, where the enzyme phosphorylates the substrate, and the compounds are then added to competitively bind to BTK against ATP, thereby inhibiting substrate phosphorylation; and 2) detection stage: after the enzyme reaction is complete, a detection reagent is added to terminate the reaction. Different groups on the phosphorylated substrate bind to the energy donor and energy acceptor, respectively, bringing the two into close proximity. During the instrumental readout, the energy donor is excited by an external light source, which enables resonance energy transfer to the proximal energy acceptor. The acceptor, in turn, becomes excited and emits light at a specific wavelength. Thus, changes in enzyme activity can be detected by measuring the signal values, and the inhibition rate of the compounds against the target enzyme can be calculated, thereby evaluating the inhibitory effect of the compounds on BTK enzyme activity.
Preparation of enzyme reaction buffer: 5× Kinase Buffer was diluted 5-fold with ultrapure water, and then the stock solutions of MgCl2, MnCl2 and DTT were added. The final composition of the buffer was as follows: 1× Kinase Buffer, 10 mM MgCl2, 1 mM MnCl2, and 1 mM DTT.
(§1) Preparation of 5 × BTK working solution: The BTK (5.17 µM) stock solution was removed from -20°C storage. Given that the BTK concentration in the enzyme reaction system was 2 nM and the concentration of the 5× working solution was 10 nM, the BTK stock solution was diluted 517-fold with the enzyme reaction buffer according to the volume required for the experiment. The diluted solution was then added to the 384-well plate at 2 µL per well. The plate was placed in a plate spinner and centrifuged at 2000 rpm for 1 minute to bring the liquid to the bottom of the wells.
as §1, with “[…]. Given” for “Preparation of 5 × BTK working solution: The BTK (5.17 µM) stock solution was removed from -20°C storage. Given”, “the SEB” for “the BTK”, “was 50” for “was 2”, “was 250” for “was 10”, “diluted 10-fold” for “diluted 517-fold”
The test compounds dissolved in 100% DMSO at 20 mM were diluted with 100% DMSO to a concentration of 200 µM, which represents the 200× concentration of the highest compound concentration point in the reaction system. The compounds at this concentration were then subjected to 10-point 3-fold serial dilution with 100% DMSO. The positive control wells and negative control wells were set with 100% DMSO. […]

mouse RPA model = assay: Efficacy in mouse RPA model (acute urticaria induced by OVA antigen and anti-OVA IgG); type: in vivo, C57BL/6N mice; conditions: single dose, p.o.; for inhibition of OVA-induced skin swelling in mice: compared with the model group
Description: To evaluate the efficacy of compound 3 in a mouse RPA model.
The administration volume of the vehicle was 10 ml/kg, and that of compound 3 was 20 ml/kg. The vehicle consisted of 0.5% MC + 0.5% Tween 80 + 99% water.
Thirty-three female C57BL/6N mice weighing 18-20 g were purchased from Vital River Laboratories. Animal production license No.: SCXK (Zhe) 2024-0001; animal qualification certificate No.: 20240229Abzz0619000122. The mice were housed in an SPF-grade animal facility under a 12/12-hour light/dark cycle, with a constant temperature of 23°C ± 1°C and a relative humidity of 50-60%. Food and water were provided ad libitum.
After acclimatisation, the mice were grouped and administered as follows: Table 4. Animal grouping and dosing regimen for in vivo efficacy experiment
After acclimatisation, the mice were shaved on the back one day prior to the experiment for skin preparation. On the day of the experiment, the mice were administered the vehicle control or compound 3 via oral gavage at administration volumes of 10 ml/kg and 20 ml/kg, respectively. Two hours post-administration, the mice were anaesthetised with isoflurane, and the thickness of the dorsal skin was measured using a vernier calliper. Upon completion of the measurement, 30 µg of mouse anti-OVA IgG was intradermally injected into the dorsal skin of the mice, while an equal volume of PBS was injected into the control group. Simultaneously, 200 µl of 2 mg/ml OVA antigen was intravenously injected. After 3 hours, the thickness of the skin swelling at the modelling site was measured.
Data of relevant indicators for animals in each group were expressed as mean ± standard deviation (Mean ± SD) and statistically analysed and plotted using GraphPad software.

C=CC(=O)N(C)CCOc1c(N)ncnc1-c1cc(F)cc(NC(=O)c2cc3c(cc2F)C2(CC2)CO3)c1C [Example 3, N-(3-(6-amino-5-(2-(N-methacrylamido)ethoxy)pyrimidin-4-yl)-5-fluoro-2-methylphenyl)-5-fluoro-2H-spiro[benzofuran-3,1'-cyclopropane]-6-carboxamide]
IC50 [1]: 8.3 nM
inhibitory effect on skin swelling across doses (mouse RPA model; 30, 100 and 150 mpk): dose-dependent inhibitory effect
inhibition of OVA-induced skin swelling in mice (mouse RPA model; 30 mpk): no statistically significant difference
inhibition of OVA-induced skin swelling in mice (mouse RPA model; 100 mpk): significantly inhibited
inhibition of OVA-induced skin swelling in mice (mouse RPA model; 150 mpk): significantly inhibited
